In the experiment the target is human chemokine receptor CXCR7 (Homo sapiens (Human), UniProt P25106). The experiment can be described thus: Tango CXCR7-bla U2OS beta-arrestin recruitment assay (beta-lactamase reporter, FRET), antagonism of CXCL12/SDF1-α.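 Note: compounds preincubated 15 min before CXCL12 addition, then 22 h at 37 °C, FRET emission ratio read with CCF4-AM substrate after 2 h.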 The format is cell-based. The following applies: antagonistic effect on CXCR7; Tango CXCR7-bla U2OS cells, CXCL12/SDF1-α at its EC80.
Sequence of human chemokine receptor CXCR7 (P25106 whole entry): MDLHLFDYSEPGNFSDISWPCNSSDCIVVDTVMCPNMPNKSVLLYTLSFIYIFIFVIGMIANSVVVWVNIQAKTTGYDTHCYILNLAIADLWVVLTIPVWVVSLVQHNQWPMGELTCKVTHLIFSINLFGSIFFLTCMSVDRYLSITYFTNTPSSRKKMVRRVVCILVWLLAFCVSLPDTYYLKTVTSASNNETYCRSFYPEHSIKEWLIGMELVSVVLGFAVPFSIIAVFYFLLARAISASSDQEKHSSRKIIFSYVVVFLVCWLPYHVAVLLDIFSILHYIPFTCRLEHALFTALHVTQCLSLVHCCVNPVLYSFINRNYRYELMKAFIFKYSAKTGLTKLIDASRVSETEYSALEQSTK

Regarding `O=C(N[C@@H]1CCN(C2CCCCC2)C[C@H]1C(=O)NCC1CCCO1)c1cc(-c2ccc(F)cc2F)on1` (relative stereo) [Example 1.044, (3R*,4R*)-1-Cyclohexyl-4-{[5-(2,4-difluoro-phenyl)-isoxazole-3-carbonyl]-amino}-piperidine-3-carboxylic acid ((2RS)-tetrahydro-furan-2-ylmethyl)-amide], half-maximal inhibition (IC50) required 556 nM. In the case of `CC(NC(=O)[C@@H]1CN(C2CCCCC2)CC[C@H]1NC(=O)c1cc(-c2ccc(F)cc2F)on1)c1ccncn1` (relative stereo) [Example 1.063, (3R*,4R*)-1-Cyclohexyl-4-{[5-(2,4-difluoro-phenyl)-isoxazole-3-carbonyl]-amino}-piperidine-3-carboxylic acid ((1RS)-1-(pyrimidin-4-yl)-ethyl)-amide] it was 107 nM; in that of `O=C(N[C@@H]1CCN(C2CCCCC2)C[C@H]1C(=O)NC(c1ccccn1)C(F)(F)F)c1cc(-c2ccc(F)cc2F)on1` (relative stereo) [Example 1.069, (3R*,4R*)-1-Cyclohexyl-4-{[5-(2,4-difluoro-phenyl)-isoxazole-3-carbonyl]-amino}-piperidine-3-carboxylic acid ((1RS)-2,2,2-trifluoro-1-pyridin-2-yl-ethyl)-amide], 556 nM; in that of `O=C(N[C@@H]1CCN(C2CCCCC2)C[C@H]1C(=O)NC[C@H](O)c1ccccc1)c1cc(-c2ccc(F)cc2F)on1` (relative stereo) [Example 1.072, (3R*,4R*)-1-Cyclohexyl-4-{[5-(2,4-difluoro-phenyl)-isoxazole-3-carbonyl]-amino}-piperidine-3-carboxylic acid ((R)-2-hydroxy-2-phenyl-ethyl)-amide], 32 nM.

As for `O=C(N[C@@H]1CCN(C2CCCCC2)C[C@H]1C(=O)NC[C@@H](O)c1ccccc1)c1cc(-c2ccc(F)cc2F)on1` (relative stereo) [Example 1.073, (3R*,4R*)-1-Cyclohexyl-4-{[5-(2,4-difluoro-phenyl)-isoxazole-3-carbonyl]-amino}-piperidine-3-carboxylic acid ((S)-2-hydroxy-2-phenyl-ethyl)-amide], half-maximal inhibition (IC50) was put at 118 nM. Next, `CC(CO)NC(=O)[C@@H]1CN(C2CCCCC2)CC[C@H]1NC(=O)c1cc(-c2ccc(F)cc2F)on1` (relative stereo) [Example 1.076, (3R*,4R*)-1-Cyclohexyl-4-{[5-(2,4-difluoro-phenyl)-isoxazole-3-carbonyl]-amino}-piperidine-3-carboxylic acid ((1RS)-2-hydroxy-1-methyl-ethyl)-amide]: 604 nM; `CC(NC(=O)[C@@H]1CN(C2CCCCC2)CC[C@H]1NC(=O)c1cc(-c2ccc(F)cc2F)on1)C(F)F` (relative stereo) [Example 1.077, (3R*,4R*)-1-Cyclohexyl-4-{[5-(2,4-difluoro-phenyl)-isoxazole-3-carbonyl]-amino}-piperidine-3-carboxylic acid ((1RS)-2,2-difluoro-1-methyl-ethyl)-amide]: 443 nM; `CC(NC(=O)[C@@H]1CN(C2CCCCC2)CC[C@H]1NC(=O)c1cc(-c2ccc(F)cc2F)on1)C1CCC1` (relative stereo) [Example 1.078, (3R*,4R*)-1-Cyclohexyl-4-{[5-(2,4-difluoro-phenyl)-isoxazole-3-carbonyl]-amino}-piperidine-3-carboxylic acid ((1RS)-1-cyclobutyl-ethyl)-amide]: 193 nM. Next, `CC(CF)NC(=O)[C@@H]1CN(C2CCCCC2)CC[C@H]1NC(=O)c1cc(-c2ccc(F)cc2F)on1` (relative stereo) [Example 1.082, (3R*,4R*)-1-Cyclohexyl-4-{[5-(2,4-difluoro-phenyl)-isoxazole-3-carbonyl]-amino}-piperidine-3-carboxylic acid ((1RS)-2-fluoro-1-methyl-ethyl)-amide]: 445 nM.

What is called IC50 is the concentration that gives 50% inhibition. Low readings indicate greater potency in that assay, high ones weaker potency in that assay.
